Series [1] has as its system P. falciparum chloroquine-resistant strain Dd2. Set-up: method as in PMID 12601673. To be noted: cited from earlier work.
For series [2], the system named is P. falciparum chloroquine sensitive strain PoW. Set-up: method as in PMID 12601673. To be noted: cited from earlier work.
Series [3] can be described thus: Cytotoxicity test against mammalian cells (L6). To be noted: rat.
Series [4] concerns Trypanosoma brucei rhodesiense (bloodstream trypomastigotes, STIB 900 strain). Nature of the series: In vitro activity against T. b. rhodesiense bloodstream trypomastigotes (STIB 900). It counts as cell-based. To be noted: for SI (selectivity index): ratio of cytotoxic (L6) over antiprotozoal (Tbr) IC50 values.
Series [5] has as its system P. falciparum (multidrug resistance strain K1). Set-up: method as in PMID 24242110. To be noted: cited from earlier work.
For series [6], the system named is Plasmodium falciparum (intra erythrocytic forms, NF54 IEF strain). Nature of the series: In vitro activity against P. falciparum intra-erythrocytic forms (NF54). It counts as cell-based. To be noted: NF54, read-out: IC50 Pf (crude extracts).
The test system of series [7] is Leishmania donovani (amastigotes, MHOM-ET-67/L82 strain). Put plainly: In vitro activity against L. donovani amastigotes (MHOM-ET-67/L82). The series is classed as cell-based. To be noted: Table 1, MHOM-ET-67/L82 amastigotes, values marked a: only one replicate, others mean of two ± SD, read-out: IC50 Ldon (crude extracts).
Setting [8] is: Table 3, STIB 900 trypomastigotes, pure compounds, read-out: IC50 Tbr (elemanolides), value in brackets (converted).
Setting [9] is: Trypanosoma brucei, Table 3, STIB 900 trypomastigotes, pure compounds, read-out: IC50 Tbr (elemanolides), value in brackets (converted).
Setting [10] is: Trypanosoma brucei, Table 3, STIB 900 trypomastigotes, read-out: IC50 Tbr (elemanolides).

The values below come from PMC6154322, “Anti-Trypanosomatid Elemanolide Sesquiterpene Lactones from Vernonia lasiopus O. Hoffm ^†” (Molecules : A Journal of Synthetic Chemistry and Natural …, 2017).

In brackets after ≈: the same amount, converted by molar mass. Several values for one entry are separate records, joined by “and”; a condition that tells them apart may be missing. Equal entries are not always repeated. Where two headings read alike, the source gives them in different places.

On to 11,13-Dihydrovernodalin [Compound 6], for which, in series [1], the “IC50 P. falciparum Dd2” value was 1.1 mg/L. The “IC50 P. falciparum PoW” value in series [2] is 2.3 mg/L.
The term IC50 denotes the point on the concentration scale where inhibition reaches its midpoint. As for `C=CC12COC(=O)C(=C)C1C(O)C(C(=C)C(=O)OC)C(O)C2` (stereo not drawn) [Compound 1, 8-Desacylvernodalol], the IC50 is 10.7 µg/mL and 34.6 µM in series [3] (L6 rat skeletal myoblast cells); 2.53 µM in series [4] (setting [8]); 2.5 µM in series [4] (setting [9]); 0.779 ± 0.22 mg/L in series [4] (setting [10]). For the same compound, in series [4], the “SI (selectivity index)” value came out at 13.7.
For `C=C[C@@]12COC(=O)C(=C)[C@@H]1[C@H]1OC(=O)C(=C)[C@@H]1[C@@H](O)C2` [Compound 2, Vernolepin], the IC50 in series [3] is 0.735 µg/mL and 2.68 µM; in series [4] (setting [8]) it was 0.185 µM; in series [4] (setting [9]), 0.19 µM; in series [4] (setting [10]) it was 0.05 mg/L. The “IC50 Tbr (elemanolides)” value in series [4] (Table 3, STIB 900 trypomastigotes) was 0.051 ± 0.035 mg/L (≈ 0.185 µM). In series [4], the “SI (selectivity index)” value turned out to be 14.5. The “times more active than the crude extract (Tbr)” value in series [4] (versus DCM crude extract) was “approximately 3.5”.
`C=C[C@@]12COC(=O)C(=C)[C@@H]1[C@@H](O)[C@@H]1C(=C)C(=O)O[C@H]1C2` [Compound 3, Vernomenin]: the IC50 is 0.62 µg/mL and 2.26 µM in series [3]; 0.508 µM in series [4] (setting [9]); 0.14 ± 0.1 mg/L in series [4] (setting [10]). For the same compound, the “SI (selectivity index)” value in series [4] is 4.50.
Turning to `C=C[C@@]12COC(=O)C(=C)[C@@H]1[C@@H](O)[C@H](C(=C)C(=O)OC)[C@@H](OC(=O)C(=C)CO)C2` [Compound 4, Vernodalol], in series [5], the “IC50 anti-plasmodial activity, P. falciparum K1” value was 4.2 mg/L (≈ 10.7 µM). Further, the 50% inhibitory concentration (IC50) in series [3] (L6 rat skeletal myoblast cells) is 1.44 µg/mL and 3.67 µM; in series [4] (setting [8]), 0.255 µM; in series [4] (setting [9]), 0.26 µM; in series [4] (setting [10]), 0.1 ± 0.041 mg/L. For the same compound, the “factor by which more active than compound 1 (Tbr)” value in series [4] (compound 4 versus compound 1) is roughly 10. Also, the “SI (selectivity index)” value in series [4] is 14.4.
Turning to `C=C[C@@]12COC(=O)C(=C)[C@@H]1[C@H]1OC(=O)C(=C)[C@@H]1[C@@H](OC(=O)C(=C)CO)C2` [Compound 5, Vernodalin], the “IC50 anti-plasmodial activity, P. falciparum K1” value in series [5] is 4.0 mg/L (≈ 11.1 µM).
For `CCN(CC)CCCC(C)Nc1ccnc2cc(Cl)ccc12` (stereo not drawn) [chloroquine], in series [6], the IC50 amounted to 0.002 mg/L (≈ 0.00625 µM).
Turning to `Nc1nc(N)nc(Nc2ccc([As]3SCC(CO)S3)cc2)n1` (stereo not drawn) [melarsoprol, reference compound], the IC50 in series [4] (Trypanosoma brucei, read-out: IC50 Tbr (crude extracts)) amounted to 0.003 ± 0.001 mg/L.
`CCCCCCCCCCCCCCCCOP(=O)([O-])OCC[N+](C)(C)C` [miltefosine]: the half-inhibitory concentration (IC50) in series [7] came out at 0.091 ± 0.07 mg/L (≈ 0.223 µM).
Compound `COc1cc([C@@H]2c3cc4c(cc3[C@H](O)[C@H]3COC(=O)[C@H]23)OCO4)cc(OC)c1OC` [podophyllotoxin, reference compound] displayed a half-inhibitory concentration (IC50) in series [3] of 0.007 ± 0.001 mg/L (≈ 0.0169 µM).
